Values joined by “and” are separate entries in the source; they are usually repeats but may differ in a detail not shown here. Equal entries are not always repeated. Where two headings read alike, the source gives them in different places. Values belong to the compound of their own block, whether it stands above or below them.
What was measured:
[1] = amide bond, 13-membered ring
[2] = target: T1, CFTR (Homo sapiens, UniProt P13569); experiment: Membrane Potential Dye, Enteroid Assay A; format: cell-based; settings: for EC50: read-out: Ent. A EC50
T1 sequence (P13569 with tags, fused parts or gaps DEL508-508): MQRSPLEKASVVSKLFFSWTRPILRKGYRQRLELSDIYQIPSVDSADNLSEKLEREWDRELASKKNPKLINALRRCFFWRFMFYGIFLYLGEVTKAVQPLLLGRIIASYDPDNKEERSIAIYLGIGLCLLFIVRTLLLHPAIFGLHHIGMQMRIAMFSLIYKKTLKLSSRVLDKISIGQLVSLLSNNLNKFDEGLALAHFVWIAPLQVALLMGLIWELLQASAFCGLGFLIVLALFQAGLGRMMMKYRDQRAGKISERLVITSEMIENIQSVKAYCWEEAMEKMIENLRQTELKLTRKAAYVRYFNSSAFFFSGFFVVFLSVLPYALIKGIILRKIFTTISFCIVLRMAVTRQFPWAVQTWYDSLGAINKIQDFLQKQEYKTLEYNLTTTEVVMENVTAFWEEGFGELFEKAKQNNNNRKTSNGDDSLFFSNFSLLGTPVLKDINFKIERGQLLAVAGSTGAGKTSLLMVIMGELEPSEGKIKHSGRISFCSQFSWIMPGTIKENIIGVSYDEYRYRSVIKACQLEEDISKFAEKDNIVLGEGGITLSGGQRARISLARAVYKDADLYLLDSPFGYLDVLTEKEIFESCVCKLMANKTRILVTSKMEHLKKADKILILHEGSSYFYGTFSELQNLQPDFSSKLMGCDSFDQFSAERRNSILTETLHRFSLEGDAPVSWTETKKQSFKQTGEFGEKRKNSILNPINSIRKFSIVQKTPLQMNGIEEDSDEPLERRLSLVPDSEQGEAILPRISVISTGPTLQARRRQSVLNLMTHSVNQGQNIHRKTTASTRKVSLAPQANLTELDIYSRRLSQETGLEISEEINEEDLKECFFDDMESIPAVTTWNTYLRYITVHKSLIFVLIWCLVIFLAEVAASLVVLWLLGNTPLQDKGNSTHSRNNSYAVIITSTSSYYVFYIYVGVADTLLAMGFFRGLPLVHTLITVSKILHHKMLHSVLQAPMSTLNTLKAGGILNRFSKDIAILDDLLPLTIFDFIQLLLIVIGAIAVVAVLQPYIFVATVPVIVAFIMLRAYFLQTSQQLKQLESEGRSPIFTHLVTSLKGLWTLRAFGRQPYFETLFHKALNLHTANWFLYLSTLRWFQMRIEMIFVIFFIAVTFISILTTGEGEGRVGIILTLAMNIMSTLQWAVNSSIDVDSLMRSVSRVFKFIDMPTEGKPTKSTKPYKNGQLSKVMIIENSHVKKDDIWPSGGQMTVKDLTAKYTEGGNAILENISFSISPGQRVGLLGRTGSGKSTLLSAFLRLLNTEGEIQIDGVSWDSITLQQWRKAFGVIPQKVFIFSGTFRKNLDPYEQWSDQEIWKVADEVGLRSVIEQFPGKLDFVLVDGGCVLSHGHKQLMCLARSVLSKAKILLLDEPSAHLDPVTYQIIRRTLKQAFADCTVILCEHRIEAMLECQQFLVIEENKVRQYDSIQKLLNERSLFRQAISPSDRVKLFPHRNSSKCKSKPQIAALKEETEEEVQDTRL
In short: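 Primary human intestinal enteroid cells exposed to compound for 18–24 hours at 37 °C, then loaded 25 min with methyl oxonol membrane potential dye plus CaCC inhibitors. Chloride transport triggered in chloride-free buffer with 10 μM forskolin, 100 μM IBMX and 300 nM Compound III, fluorescence read 15 min; % Activity relative to a triple-combination corrector/potentiator control.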

[3] = target: T1, CFTR; experiment: Membrane Potential Dye, Enteroid Assay B; format: cell-based
In short: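 Human intestinal enteroid cells exposed to compound 18-24 h at 37 °C, then loaded with methyl oxonol membrane-potential dye plus CaCC blockers. Chloride transport triggered in chloride-free buffer with 10 μM forskolin, 100 μM IBMX, 300 nM Compound III; fluorescence read 15 min, expressed as % of triple-corrector/potentiator combination control.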

[4] = Table 10, read-out: Ent. B EC50

Ent. A Max Activity (%) [2]: +++ (+++ is >60%)
EC50 [2]: < 1 µM
Ent. B Max Activity (%) [3]: +++ (+++ is >60%)
EC50 ([3]; read-out: Ent. B EC50): < 1 µM
SMILES: Cc1cccc(C)c1-c1cc2nc(n1)NS(=O)(=O)c1cccc(c1)C(=O)N(C1CC3(CCN(C(=O)OC(C)(C)C)CC3)C1)[C@H](CC(C)C)CO2 [Compound 13, tert-Butyl 2-[(11R)-6-(2,6-dimethylphenyl)-11-isobutyl-2,2,13-trioxo-9-oxa-2λ^6-thia-3,5,12,19-tetrazatricyclo[12.3.1.14,8]nonadeca-1(18),4(19),5,7,14,16-hexaen-12-yl]-7-azaspiro[3.5]nonane-7-carboxylate]
ring closure, isolated yield ([1]; from Cc1cccc(C)c1-c1cc(OC[C@@H](CC(C)C)NC2CC3(CCN(C(=O)OC(C)(C)C)CC3)C2)nc(NS(=O)(=O)c2cccc(C(=O)O)c2)n1, HATU/DIEA, DMF, 68.6 mM, 25.0 °C, 13.0 h): 78%

Ent. B Max Activity (%) [3]: +++ (+++ is >60%)
EC50 ([3]; read-out: Ent. B EC50): < 1 µM
SMILES: Cc1cccc(C)c1-c1cc2nc(n1)NS(=O)(=O)c1cccc(c1)C(=O)N(C1CC3(CCN(C(=O)OC(C)(C)C)CC3)C1)[C@H](CC1(C(F)(F)F)CC1)CO2 [Compound 127, tert-butyl 2-[(11R)-6-(2,6-dimethylphenyl)-2,2,13-trioxo-11-[[1-(trifluoromethyl)cyclopropyl]methyl]-9-oxa-2λ^6-thia-3,5,12,19-tetrazatricyclo[12.3.1.14,8]nonadeca-1(18),4(19),5,7,14,16-hexaen-12-yl]-7-azaspiro[3.5]nonane-7-carboxylate]
ring closure, isolated yield ([1]; from Cc1cccc(C)c1-c1cc(OC[C@@H](CC2(C(F)(F)F)CC2)NC2CC3(CCN(C(=O)OC(C)(C)C)CC3)C2)nc(NS(=O)(=O)c2cccc(C(=O)O)c2)n1, HATU/DIEA, DMF, 65.3 mM, 16.0 h): 59%

Ent. B Max Activity (%) ([3]; Table 9): +++ (+++ is >60%)
EC50 ([3]; Table 9, read-out: Ent. B EC50): < 1 µM
SMILES: Cc1cccc(C)c1-c1cc2nc(n1)NS(=O)(=O)c1cccc(c1)C(=O)N(C1CC3(CCN(C(=O)OC(C)(C)C)CC3)C1)[C@H](CC(C)(C)C(F)(F)F)CO2 [Compound 187, tert-Butyl 2-[(11R)-6-(2,6-dimethylphenyl)-2,2,13-trioxo-11-(3,3,3-trifluoro-2,2-dimethylpropyl)-9-oxa-2λ^6-thia-3,5,12,19-tetraazatricyclo[12.3.1.14,8]nonadeca-1(17),4(19),5,7,14(18),15-hexaen-12-yl]-7-azaspiro[3.5]nonane-7-carboxylate]
ring closure, isolated yield ([1]; from Cc1cccc(C)c1-c1cc(OC[C@@H](CC(C)(C)C(F)(F)F)NC2CC3(CCN(C(=O)OC(C)(C)C)CC3)C2)nc(NS(=O)(=O)c2cccc(C(=O)O)c2)n1, HATU/DIEA, DMF, 37.7 mM, 17.0 h): 15%

Ent. B Max Activity (%) ([3]; Table 10): +++ (+++ is >60%)
EC50 [3, 4]: < 1 µM
SMILES: Cc1cccc(C)c1-c1cc2nc(n1)NS(=O)(=O)c1cccc(c1)C(=O)N(C1CC3(CC(NC(=O)OC(C)(C)C)C3)C1)[C@H](CC(C)(C)C)CO2 (some centres unmarked) [Compound 199]
ring closure, isolated yield ([1]; from Cc1cccc(C)c1-c1cc(OC[C@@H](CC(C)(C)C)NC2CC3(CC(NC(=O)OC(C)(C)C)C3)C2)nc(NS(=O)(=O)c2cccc(C(=O)O)c2)n1, HATU/DIEA, DMF, 107.7 mM, 24.0 h): 63%
ring closure, isolated yield ([1]; from Cc1cccc(C)c1-c1cc(OC[C@@H](CC(C)(C)C)NC2CC3(CC(NC(=O)OC(C)(C)C)C3)C2)nc(NS(=O)(=O)c2cccc(C(=O)O)c2)n1, HATU/DIEA, DMF, 120.7 mM, 36.0 h): 80%

SMILES: Cc1cccc(C)c1-c1cc2nc(n1)NS(=O)(=O)c1cccc(c1)C(=O)N(C1CC(OCc3ccccc3)C1)[C@H](CC(C)(C)C)CO2 (some centres unmarked)
ring closure, isolated yield ([1]; from Cc1cccc(C)c1-c1cc(OC[C@@H](CC(C)(C)C)NC2CC(OCc3ccccc3)C2)nc(NS(=O)(=O)c2cccc(C(=O)O)c2)n1, COMU/DIEA, DMF, 65.1 mM, 25.0 °C, 16.0 h): 82%

SMILES: Cc1cccc(C)c1-c1cc2nc(n1)NS(=O)(=O)c1cccc(c1)C(=O)N(C1CC3(COC(=O)N3)C1)[C@H](CC(C)(C)C)CO2 (some centres unmarked)
ring closure, isolated yield ([1]; from Cc1cccc(C)c1-c1cc(OC[C@@H](CC(C)(C)C)NC2CC3(COC(=O)N3)C2)nc(NS(=O)(=O)c2cccc(C(=O)O)c2)n1, COMU/DIEA, DMF, 13.0 mM, 25.0 °C, 3.0 h, 2 steps): 8% and 3%

SMILES: Cc1cccc(C)c1-c1cc2nc(n1)NS(=O)(=O)c1cccc(c1)C(=O)N(C1CC3(CCN(C(=O)OC(C)(C)C)CC3)C1)[C@@H](CC(C)C)CO2
ring closure, isolated yield ([1]; from Cc1cccc(C)c1-c1cc(OC[C@H](CC(C)C)NC2CC3(CCN(C(=O)OC(C)(C)C)CC3)C2)nc(NS(=O)(=O)c2cccc(C(=O)O)c2)n1, HATU/DIEA, DMF/THF, 16.0 h, 2 steps): 18%

SMILES: COC(=O)C1CC2(C1)CC(N1C(=O)c3cccc(c3)S(=O)(=O)Nc3nc(cc(-c4c(C)cccc4C)n3)OC[C@H]1CC(C)(C)C)C2 (some centres unmarked)
ring closure, isolated yield ([1]; from COC(=O)C1CC2(CC(N[C@@H](COc3cc(-c4c(C)cccc4C)nc(NS(=O)(=O)c4cccc(C(=O)O)c4)n3)CC(C)(C)C)C2)C1, COMU/DIEA, DMF, 16.0 h, 2 steps): 51%

SMILES: Cc1cccc(C)c1-c1cc2nc(n1)NS(=O)(=O)c1cccc(c1)C(=O)N(C1CC3(CC(NC(=O)OC(C)(C)C)C3)C1)[C@H](CC1(C(F)(F)F)CC1)CO2 (some centres unmarked)
ring closure, isolated yield ([1]; from Cc1cccc(C)c1-c1cc(OC[C@@H](CC2(C(F)(F)F)CC2)NC2CC3(CC(NC(=O)OC(C)(C)C)C3)C2)nc(NS(=O)(=O)c2cccc(C(=O)O)c2)n1, HATU/DIEA, DMF, 99.2 mM, 18.0 h): 74%

SMILES: Cc1cccc(C)c1-c1cc2nc(n1)NS(=O)(=O)c1cccc(c1)C(=O)N(C1CC(NC(=O)OC(C)(C)C)C1)[C@H](CC1(C(F)(F)F)CC1)CO2 (some centres unmarked)
ring closure, isolated yield ([1]; from Cc1cccc(C)c1-c1cc(OC[C@@H](CC2(C(F)(F)F)CC2)NC2CC(NC(=O)OC(C)(C)C)C2)nc(NS(=O)(=O)c2cccc(C(=O)O)c2)n1, HATU/DIPEA, DMF, 28.6 mM, 16.0 h): 61%

Ent. B Max Activity (%) ([3]; Table 10): +++ (+++ is >60%)
EC50 [3, 4]: 1 to 3 µM
SMILES: Cc1cccc(C)c1-c1cc2nc(n1)NS(=O)(=O)c1cccc(c1)C(=O)N(C1CC3(CC3)C1)[C@H](CC(C)(C)O)CO2 [Compound 51, (11R)-6-(2,6-Dimethylphenyl)-11-(2-hydroxy-2-methyl-propyl)-2,2-dioxo-12-spiro[2.3]hexan-5-yl-9-oxa-2λ^6-thia-3,5,12,19-tetrazatricyclo[12.3.1.14,8]nonadeca-1(18),4(19),5,7,14,16-hexaen-13-one]
ring closure, isolated yield ([1]; from Cc1cccc(C)c1-c1cc(OC[C@@H](CC(C)(C)O)NC2CC3(CC3)C2)nc(NS(=O)(=O)c2cccc(C(=O)O)c2)n1, T3P/Et3N, DMF/EtOAc, 26.4 mM, 4.0 h): 17%

Ent. A Max Activity (%) [2]: +++ (+++ is >60%)
EC50 [2]: < 1 µM
Ent. B Max Activity (%) [3]: +++ (+++ is >60%)
EC50 ([3]; read-out: Ent. B EC50): < 1 µM
SMILES: Cc1cccc(C)c1-c1cc2nc(n1)NS(=O)(=O)c1cccc(c1)C(=O)N(C1CC3(CC3)C1)[C@H](CC1(C(F)(F)F)CC1)CO2 [Compound 198, (11R)-6-(2,6-Dimethylphenyl)-2,2-dioxo-12-spiro[2.3]hexan-5-yl-11-[[1-(trifluoromethyl)cyclopropyl]methyl]-9-oxa-2λ^6-thia-3,5,12,19-tetrazatricyclo[12.3.1.14,8]nonadeca-1(18),4(19),5,7,14,16-hexaen-13-one]
ring closure, isolated yield ([1]; from Cc1cccc(C)c1-c1cc(OC[C@@H](CC2(C(F)(F)F)CC2)NC2CC3(CC3)C2)nc(NS(=O)(=O)c2cccc(C(=O)O)c2)n1, HATU/DIEA, DMF, 49.1 mM, 21.0 h): 60%

SMILES: Cc1cccc(C)c1-c1cc2nc(n1)NS(=O)(=O)c1cccc(c1)C(=O)N(C1[C@@H]3C[C@H]1CN(C(=O)OC(C)(C)C)C3)[C@H](CC(C)(C)C)CO2 (some centres unmarked)
ring closure, isolated yield ([1]; from Cc1cccc(C)c1-c1cc(OC[C@@H](CC(C)(C)C)NC2C3CC2CN(C(=O)OC(C)(C)C)C3)nc(NS(=O)(=O)c2cccc(C(=O)O)c2)n1, COMU/DIEA, DMF, 8.4 mM, 25.0 °C, 24.0 h): 17%

Ent. A Max Activity (%) [2]: +++ (+++ is >60%)
EC50 [2]: < 1 µM
SMILES: Cc1cccc(C)c1-c1cc2nc(n1)NS(=O)(=O)c1cccc(n1)C(=O)N(C1CC3(CC3)C1)[C@H](CC1(C(F)(F)F)CC1)CO2 [Compound 163, (11R)-6-(2,6-Dimethylphenyl)-2,2-dioxo-12-spiro[2.3]hexan-5-yl-11-[[1-(trifluoromethyl)cyclopropyl]methyl]-9-oxa-2λ^6-thia-3,5,12,18,19-pentazatricyclo[12.3.1.14,8]nonadeca-1(18),4(19),5,7,14,16-hexaen-13-one]
ring closure, isolated yield ([1]; from Cc1cccc(C)c1-c1cc(OC[C@@H](CC2(C(F)(F)F)CC2)NC2CC3(CC3)C2)nc(NS(=O)(=O)c2cccc(C(=O)O)n2)n1, HATU/DIEA, NMP, 99.8 mM, 25.0 °C, 16.0 h): 58%

SMILES: Cc1cccc(C)c1-c1cc2nc(n1)NS(=O)(=O)c1cccc(c1)C(=O)N(C1CC3(CCN(C(=O)OC(C)(C)C)C3)C1)[C@H](CC(C)C)CO2 (some centres unmarked)
ring closure, isolated yield ([1]; from Cc1cccc(C)c1-c1cc(OC[C@@H](CC(C)C)NC2CC3(CCN(C(=O)OC(C)(C)C)C3)C2)nc(NS(=O)(=O)c2cccc(C(=O)O)c2)n1, HATU/DIEA, DMF, 25.0 °C, 3.0 h, 2 steps): 67%

SMILES: Cc1cccc(C)c1-c1cc2nc(n1)NS(=O)(=O)c1cccc(c1)C(=O)N(C1CCN(C(=O)OC(C)(C)C)C1)[C@H](CC(C)C)CO2 (some centres unmarked)
ring closure, isolated yield ([1]; from Cc1cccc(C)c1-c1cc(OC[C@@H](CC(C)C)NC2CCN(C(=O)OC(C)(C)C)C2)nc(NS(=O)(=O)c2cccc(C(=O)O)c2)n1, COMU/DIPEA, DMF, 10.0 mM, 16.0 h, 2 steps): 28%

Source: patent US20230382925A1, “MODULATORS OF CYSTIC FIBROSIS TRANSMEMBRANE CONDUCTANCE REGULATOR” (VERTEX PHARMACEUTICALS INCORPORATED, priority 2020, published 2023)
